{"source": "patent US10653658B2", "about": "“Biofilm inhibiting compositions enhancing weight gain in livestock” (Akeso Biomedical, Inc., priority 2015, dated 2020)", "key": {"[1]": {"tested_on": "Campylobacter jejuni NCTC 11168", "test": "Biofilm formation on plastic coated UV beads (Example 6)", "conditions": "Fe-Tart and Fe-Cit at 50, 100, and 300 μM; FeQ (QPLEX) at 300"}, "[2]": {"tested_on": "Campylobacter jejuni", "test": "Campylobacter carriage in chickens after oral challenge, caecal contents at day 35 (Example 9)", "type": "in vivo", "conditions": "340 μM in the drinking water; oral challenge at day 14", "experimental": "A study was performed to evaluate reduction of Campylobacter carriage in chickens using ferric lactate in one treatment group, and FeQ (Q-PLEX) in a second treatment group. A third treatment group served as a positive control. The ferric lactate and FeQ were administered to the treatment groups at a concentration of 340 μM in the drinking water. Each treatment group comprised 12 birds per pen. All three treatment groups were orally challenged with 10^5 cfu of Campylobacter jejuni at day 14 of the trial. At day 35 all birds were euthanized, and quantitative bacteriology performed on caecal contents."}, "[3]": {"tested_on": "E. coli", "test": "E. coli cfu/g of caeca at day 42 (Example 10)", "type": "in vivo", "experimental": "(§1) A study was performed to evaluate growth promotion and reduction of Campylobacter carriage using FeTyr in Ross 308 male broilers with 7 treatment groups. Each treatment group comprised eight replicates of 10 birds per pen (80 birds/treatment group), with 2 control groups and […]. All the test groups and both of the control groups were exposed at day 20 of the trial to dirty litter, which tested positive for Campylobacter. This method was used to provide a more natural method to Campylobacter challenge the birds. Thus there were two positive controls where each treatment group was challenged with Campylobacter, and five treatment groups that were all challenged with Campylobacter. The total number of birds used in the 7 treatment groups was 560.\n(§2) At day 20, litter, which was naturally Campylobacter-contaminated, was tested to confirm the presence of Campylobacter, and then added (approximately 2 kg/pen) to the litter in all pens. At day 42, caecal samples were taken and tested for Campylobacter, E. coli and Salmonella enumeration."}, "[4]": {"test": "Dose ranging study of FeTyr (TYPLEX) in feed, zootechnical performance of broilers, dirty litter challenge at day 20 (Example 10)", "type": "in vivo, Ross 308 male broilers", "conditions": "for AFI / AWG / MFCR / AFI/bird/period / AWG/bird/period: 0.22 g Q-PLEX/kg feed", "experimental": "as §1\nTreatment group 1 was a positive control where birds just received the commercial feed, and were challenged with dirty litter containing Campylobacter at day 20. Treatment group 2 received 0.01 g/kg of TYPLEX (FeTyr) in their feed, and were challenged with dirty litter containing Campylobacter at day 20. Treatment group 3 received 0.02 g/kg of TYPLEX (FeTyr) in their feed, and was challenged with dirty litter containing Campylobacter at day 20. Treatment group 4 received 0.05 g/kg of TYPLEX (FeTyr) in their feed, and was challenged with dirty litter containing Campylobacter at day 20. Treatment group 5 received 0.1 g/kg of TYPLEX (FeTyr) in their feed, and was challenged with dirty litter containing Campylobacter at day 20. Treatment group 6 received 0.2 g/kg of TYPLEX (FeTyr) in their feed, and was challenged with dirty litter containing Campylobacter at day 20. […] The birds were fed with a commercial three-phase feeding program using starter, grower and finisher feeds as described in Example 1. The birds were reared in floor pens to day 42, and fed starter, grower and finisher feed at day 0 to 11, 11 to 24, and 24 to 42 days, respectively. All birds were weighed individually and feed weigh backs recorded per pen at day 0, 11, 21, 24 and 42 days.\nas §2\nIn order to minimize risk of cross-contamination, standard industry biosecurity measures were used including: disinfecting boots, changing overshoes and gloves between pens/treatments, entering Campylobacter negative pens before entering Campylobacter positive pens, and leaving adjacent pens empty. Daily health, culls, and mortality were recorded. All bird weights were recorded at 0, 11, 21, 24, 33 and 42 days. Weight gains, feed intake and feed conversion ratio (FCR) were derived for each feeding period."}, "[5]": {"tested_on": "Salmonella", "test": "Salmonella cfu/g of caeca at day 42 (Example 10)", "type": "in vivo", "conditions": "in feed", "experimental": "as §1, §2"}}, "note": "Marks after values point to notes of the source that are not given here.", "data": [{"smiles": "O=C([O-])C1(O)CC(O)C(O)C(O)C1.O=C([O-])C1(O)CC(O)C(O)C(O)C1.O=C([O-])C1(O)CC(O)C(O)C(O)C1.[Fe+3]", "note": "(stereo not drawn) [FeQ, Ferric Quinate]", "values": [{"measurement": "C. jejuni biofilm formation on plastic coated UV beads (FIG. 9)", "setting": "[1]", "result": "inhibited C. jejuni biofilm formation"}, {"measurement": "levels of Campylobacter in caeca at day 35 compared with positive control (FIG. 11)", "setting": "[2]", "result": "lower levels of Campylobacter in their caeca"}, {"measurement": "E. coli cfu/g of caeca at day 42 (FIG. 16)", "setting": "[3]; in feed", "result": "positive effect on reducing Campylobacter infection"}, {"measurement": "levels of E. coli in poultry upon treatment", "setting": "[3]; poultry data", "result": "lower levels of E. coli"}, {"measurement": "AFI", "setting": "[4]; 0-25 d of age", "result": 1.898, "unit": "kg"}, {"measurement": "AWG", "setting": "[4]; 0-25 d of age", "result": "1.422^c kg"}, {"measurement": "MFCR", "setting": "[4]; 0-25 d of age", "result": "1.335^a feed:gain"}, {"measurement": "AFI/bird/period", "setting": "[4]; 0-35 d of age", "result": 3.815, "unit": "kg"}, {"measurement": "AWG/bird/period", "setting": "[4]; 0-35 d of age", "result": 0.668, "unit": "kg"}, {"measurement": "MFCR", "setting": "[4]; 0-35 d of age", "result": "1.458^a feed:gain"}, {"measurement": "AFI/bird/period", "setting": "[4]; 0-42 d of age", "result": 5.279, "unit": "kg"}, {"measurement": "AWG/bird/period", "setting": "[4]; 0-42 d of age", "result": "3.448^ab kg"}, {"measurement": "MFCR", "setting": "[4]; 0-42 d of age", "result": "1.547^a feed:gain"}, {"measurement": "AFI", "setting": "[4]; 35 to 42 d of age", "result": 1.464, "unit": "kg"}, {"measurement": "AWG", "setting": "[4]; 35 to 42 d of age", "result": 0.790, "unit": "kg"}, {"measurement": "MFCR", "setting": "[4]; 35 to 42 d of age", "result": "1.864 feed:gain"}, {"measurement": "ABW (average body weight/pen) 1 d", "setting": "[4]; T7 0.22 g Q-PLEX/kg feed", "result": 0.040, "unit": "kg"}, {"measurement": "ABW (average body weight/pen) 11 d", "setting": "[4]; T7 0.22 g Q-PLEX/kg feed", "result": "0.350^b kg"}, {"measurement": "ABW (average body weight/pen) 20 d", "setting": "[4]; T7 0.22 g Q-PLEX/kg feed", "result": 0.968, "unit": "kg"}, {"measurement": "ABW (average body weight/pen) 25 d", "setting": "[4]; T7 0.22 g Q-PLEX/kg feed", "result": "1.463^c kg"}, {"measurement": "ABW (average body weight/pen) 28 d", "setting": "[4]; T7 0.22 g Q-PLEX/kg feed", "result": "1.836^b kg"}, {"measurement": "ABW (average body weight/pen) 30 d", "setting": "[4]; T7 0.22 g Q-PLEX/kg feed", "result": "2.031^b kg"}, {"measurement": "ABW (average body weight/pen) 35 d", "setting": "[4]; T7 0.22 g Q-PLEX/kg feed", "result": "2.698^ab kg"}, {"measurement": "ABW (average body weight/pen) 42 d", "setting": "[4]; T7 0.22 g Q-PLEX/kg feed", "result": "3.488^ab kg"}, {"measurement": "AFI (mean feed intake/pen) 1 to 11 d", "setting": "[4]; T7 0.22 g Q-PLEX/kg feed", "result": "0.357^b kg"}, {"measurement": "AFI (mean feed intake/pen) 11 to 20 d", "setting": "[4]; T7 0.22 g Q-PLEX/kg feed", "result": "0.836^ab kg"}, {"measurement": "AFI (mean feed intake/pen) 11 to 25 d", "setting": "[4]; T7 0.22 g Q-PLEX/kg feed", "result": 1.541, "unit": "kg"}, {"measurement": "AFI (mean feed intake/pen) 20 to 35 d", "setting": "[4]; T7 0.22 g Q-PLEX/kg feed", "result": 2.622, "unit": "kg"}, {"measurement": "AFI (mean feed intake/pen) 25-42 d", "setting": "[4]; T7 0.22 g Q-PLEX/kg feed", "result": 3.381, "unit": "kg"}, {"measurement": "AFI/bird/period 20-25 d", "setting": "[4]; T7 0.22 g Q-PLEX/kg feed", "result": 0.705, "unit": "kg"}, {"measurement": "AFI/bird/period 25-35 d", "setting": "[4]; T7 0.22 g Q-PLEX/kg feed", "result": 1.917, "unit": "kg"}, {"measurement": "AWG (mean weight gain/pen) 1 to 11 d", "setting": "[4]; T7 0.22 g Q-PLEX/kg feed", "result": "0.310^b kg"}, {"measurement": "AWG (mean weight gain/pen) 11 to 20 d", "setting": "[4]; T7 0.22 g Q-PLEX/kg feed", "result": 0.618, "unit": "kg"}, {"measurement": "AWG (mean weight gain/pen) 11 to 25 d", "setting": "[4]; T7 0.22 g Q-PLEX/kg feed", "result": "1.113^b kg"}, {"measurement": "AWG (mean weight gain/pen) 20 to 35 d", "setting": "[4]; T7 0.22 g Q-PLEX/kg feed", "result": "1.730^ab kg"}, {"measurement": "AWG (mean weight gain/pen) 25-42 d", "setting": "[4]; T7 0.22 g Q-PLEX/kg feed", "result": "2.026^ab kg"}, {"measurement": "AWG/bird/period 20-25 d", "setting": "[4]; T7 0.22 g Q-PLEX/kg feed", "result": 0.495, "unit": "kg"}, {"measurement": "AWG/bird/period 25-35 d", "setting": "[4]; T7 0.22 g Q-PLEX/kg feed", "result": "1.236^abc kg"}, {"measurement": "MFCR 1 to 11 d", "setting": "[4]; T7 0.22 g Q-PLEX/kg feed", "result": "1.150^x feed:gain"}, {"measurement": "MFCR 11 to 20 d", "setting": "[4]; T7 0.22 g Q-PLEX/kg feed", "result": "1.357^ab feed:gain"}, {"measurement": "MFCR 11 to 25 d", "setting": "[4]; T7 0.22 g Q-PLEX/kg feed", "result": "1.387^a feed:gain"}, {"measurement": "MFCR 20-25 d", "setting": "[4]; T7 0.22 g Q-PLEX/kg feed", "result": "1.430^a feed:gain"}, {"measurement": "MFCR 20 to 35 d", "setting": "[4]; T7 0.22 g Q-PLEX/kg feed", "result": "1.554^a feed:gain"}, {"measurement": "MFCR 25-35 d", "setting": "[4]; T7 0.22 g Q-PLEX/kg feed", "result": "1.607^ab feed:gain"}, {"measurement": "MFCR 25-42 d", "setting": "[4]; T7 0.22 g Q-PLEX/kg feed", "result": "1.703^ab feed:gain"}, {"measurement": "MFCR at day 42 compared to control group (FIG. 13)", "setting": "[4]; all treatment groups, in feed", "result": "improved MFCR values"}, {"measurement": "average body weight at day 42 compared with control group (FIG. 12)", "setting": "[4]; all treatment groups, in feed", "result": "higher average body weight"}, {"measurement": "Salmonella cfu/g of caeca at day 42 (FIG. 15)", "setting": "[5]", "result": "positive effect on reducing Campylobacter infection"}]}]}
